In BindingDB's records for doi:10.7270/Q21V5CBG (NMMLSC, 2007):

Each compound was assayed against T1, fMet-Leu-Phe receptor (Homo sapiens, UniProt P21462) (assay: human FPR1 ligand displacement potency – cell-based, flow cytometry, IC50, selectivity assay for FPRL1 ligand SAR project, dose response (AID 762)).
T1 sequence (P21462 whole entry): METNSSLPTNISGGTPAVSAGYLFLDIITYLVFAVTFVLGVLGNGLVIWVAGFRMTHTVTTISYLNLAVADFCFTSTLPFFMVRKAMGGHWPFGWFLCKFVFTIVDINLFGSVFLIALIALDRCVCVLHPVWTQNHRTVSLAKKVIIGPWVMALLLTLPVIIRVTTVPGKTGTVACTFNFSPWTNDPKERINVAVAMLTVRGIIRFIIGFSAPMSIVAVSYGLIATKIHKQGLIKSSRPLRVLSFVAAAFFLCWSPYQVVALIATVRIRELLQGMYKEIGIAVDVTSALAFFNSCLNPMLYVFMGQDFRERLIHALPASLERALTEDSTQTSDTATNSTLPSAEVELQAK

`COc1ccc(-c2cc(C(F)(F)F)nc(N3CCN(c4ccccc4)CC3)n2)cc1OC` [4-(3,4-dimethoxyphenyl)-2-(4-phenyl-1-piperazinyl)-6-(trifluoromethyl)pyrimidine] and `COc1ccc(-c2cc(C(F)(F)F)nc(N3CCN(Cc4ccccc4)CC3)n2)cc1OC` [2-(4-benzylpiperazin-1-yl)-4-(3,4-dimethoxyphenyl)-6-(trifluoromethyl)pyrimidine] cannot be ordered by Ki: over 32.7 µM for the first, over 31.7 µM for the second.

`COc1ccc(-c2cn3cccnc3n2)cc1NC(=O)C(C)C` [N-(5-imidazo[1,2-a]pyrimidin-2-yl-2-methoxy-phenyl)-2-methyl-propanamide] and `CCC(=O)Nc1cc(-c2cn3cccnc3n2)ccc1OC` [N-(5-imidazo[1,2-a]pyrimidin-2-yl-2-methoxy-phenyl)propanamide] cannot be ordered by Ki: over 46.9 µM for the first, over 49.1 µM for the second.

`COc1ccc(-c2cn3cccnc3n2)cc1NC(=O)C1CCCC1` [MLS000045945] and `COc1ccc(-c2cn3cccnc3n2)cc1NC(=O)C1CC1` [MLS000045944] cannot be ordered by Ki: over 43.3 µM for the first, over 47.2 µM for the second.

`COc1ccc(-c2cc(C(F)(F)F)nc(N3CCN(C(c4ccccc4)c4ccccc4)CC3)n2)cc1OC` [2-(4-benzhydrylpiperazin-1-yl)-4-(3,4-dimethoxyphenyl)-6-(trifluoromethyl)pyrimidine] and `CCOC(=O)N1CCN(c2nc(-c3ccc(OC)c(OC)c3)cc(C(F)(F)F)n2)CC1` [4-[4-(3,4-dimethoxyphenyl)-6-(trifluoromethyl)-2-pyrimidinyl]-1-piperazinecarboxylic acid ethyl ester] cannot be ordered by Ki: over 27.2 µM for the first, over 33 µM for the second.

`O=C(N1CCN(c2nc(-c3ccccc3)c3ccccc3n2)CC1)C(F)(F)F` [2,2,2-trifluoro-1-[4-(4-phenyl-2-quinazolinyl)-1-piperazinyl]ethanone] and `COc1ccc(CC(=O)Nc2cc(-c3cn4cccnc4n3)ccc2OC)cc1` [N-(5-imidazo[1,2-a]pyrimidin-2-yl-2-methoxy-phenyl)-2-(4-methoxyphenyl)acetamide] cannot be ordered by Ki: over 37.6 µM for the first, over 37.4 µM for the second.
